Measured values taken from paper PMC13576449, “Small-Molecule Activators of PRMT1: Discovery, SAR Analyses, and Proapoptotic Effects in Pancreatic Cancer Cells” (Journal of Medicinal Chemistry, 2026).

Columns and labels:
Assay type in all cases: biochemical
FLAG-tagged PRMT1 = molecular target: T1, FLAG-tagged PRMT1 (Rattus norvegicus, UniProt Q63009); assay: Fluorescence-based in vitro PRMT assay (F-PRMT assay), PRMT1; details: for Experimental result (PRMT1): vs solvent control = 100%
T1 construct: Full-length FLAG-tagged PRMT protein; made in house; host or cells: Sf9 insect cells (baculovirus)

FLAG-tagged PRMT3 = molecular target: T2, FLAG-tagged PRMT3 (Homo sapiens, UniProt O60678); assay: Fluorescence-based in vitro PRMT assay (F-PRMT assay), PRMT3; details: for Experimental result (PRMT3): vs solvent control = 100%
T2 construct: The complete ORFs of human PRMT3 and PRMT6 were inserted; made in house; host or cells: Sf9 insect cells (baculovirus)
Source text: (§1) To evaluate the effects of the selected candidate molecules on the catalytic activity of type I enzymes, we employed a quantitative fluorescence-based in vitro PRMT activity (F-PRMT) assay using recombinant FLAG-tagged PRMT proteins expressed and affinity-purified from baculovirus-infected Sf9 cells (SI Figure S1, SI Figure S2A).
(§2) Human cell lines (PaTu8988T, PANC-1) were obtained from ATCC (American Type Culture Collection) and cultured in DMEM supplemented with 10% fetal calf serum (FCS, Gibco/BRL), 1% penicillin/streptomycin at 37 °C and 5% CO2. […] For PRMT1 inhibition, cells were treated with type I PRMT inhibitor MS023 hydrochloride (Biomol). For induction of genotoxic stress, cells were treated with gemcitabine (LC Laboratories). […] The following plasmids were used: pFASTBAC-FLAG-rat PRMT1, pFASTBAC-FLAG-mouse PRMT4, and pGEX-GAR. The complete ORFs of human PRMT3 and PRMT6 were inserted into the pFASTBAC HT-3xFLAG B vector via BamHI/HindIII and BamHI/XhoI sites, respectively.
(§3) For PRMT protein expression in insect cells, recombinant baculovirus (bacmid) was generated using the Bac-to-Bac baculovirus system (Invitrogen). Sf9 cells were transfected with bacmid DNA using X-tremeGENE HP DNA transfection reagent (Sigma-Aldrich) according to the manufacturer's instructions. After 3–5 days, supernatants were collected, filtered, and used to infect Sf9 cells to amplify the virus. After 2 rounds of virus amplification and estimation of the final P3 virus titer, the P3 virus (2–5 μL/10^6 cells) was applied for large-scale infection of 200 × 10^6 Sf9 cells in suspension culture at a density of 1 × 10^6 cells/mL. Cells were harvested 5–6 days post-infection by centrifugation at 500 g for 5 min at room temperature. Protein purification from baculovirus-infected Sf9 cells was performed as previously described. , Cells were lysed in BC buffer (20 mM HEPES pH 7.9, 250 mM NaCl, 10% (v/v) glycerin, 0.4 mM EDTA, 1 mM DTT) containing a protease inhibitor cocktail (Roche) by 3 freeze-thaw cycles. After centrifugation at 11,000 rpm (Sorval SS34 rotor) and 4 °C for 1 h, the supernatant (whole cell protein extract) was incubated with anti-FLAG M2 Affinity Gel (Cytiva) at 4 °C and under agitation for 4 h. Subsequently, beads were washed in BC buffer containing various NaCl concentrations (once in BC with 1 M NaCl, twice in BC with 500 mM NaCl, twice in BC with 250 mM NaCl and twice in BC with 100 mM NaCl). FLAG-tagged proteins were either maintained bead-bound as a 50% (v/v) slurry in BC buffer with 100 mM NaCl and stored at −80 °C or were eluted in the appropriate elution buffer (depending on the subsequent assay) containing 0.25 mg/mL 3xFLAG peptides (Sigma-Aldrich) at 4 °C for 30–45 min. To remove the FLAG-peptides from the eluate, dialysis was performed in elution buffer containing 10% (v/v) glycerol at 4 °C for 4–6 h using Slide-A-Lyzer Dialysis Devices (Thermo Fisher Scientific) according to the manufacturer’s recommendations.
(§4) In the first step, the fluorogenic substrate Nα-Benzoyl-L-arginine-7-amido-4-methylcoumarin (Bz-Arg-AMC, Sigma-Aldrich) undergoes methylation by PRMTs upon the addition of the cofactor SAM. In the second reaction step, trypsin cleaves the nonmethylated substrate, leading to the generation of the 7-amino-4-methylcoumarin product, which can be quantified by subsequent fluorescence measurement (excitation: 355 nm, emission: 460 nm). The first reaction was conducted with bead-bound PRMTs at a total volume of 100 μL. Each condition was performed as a technical triplicate to determine the mean and the standard deviation. […] For the negative controls, SAM was substituted with assay buffer. The incubation was continued at 37 °C and under agitation (1,000 rpm) for a duration of 2 h.

FLAG-tagged PRMT4 = molecular target: T3, FLAG-tagged PRMT4 (Mus musculus, UniProt Q9WVG6); assay: Fluorescence-based in vitro PRMT assay (F-PRMT assay), PRMT4; details: for Experimental result (PRMT4): vs solvent control = 100%
T3 construct: Full-length FLAG-tagged PRMT protein; made in house; host or cells: Sf9 insect cells (baculovirus)
T3 sequence (Q9WVG6 1-608): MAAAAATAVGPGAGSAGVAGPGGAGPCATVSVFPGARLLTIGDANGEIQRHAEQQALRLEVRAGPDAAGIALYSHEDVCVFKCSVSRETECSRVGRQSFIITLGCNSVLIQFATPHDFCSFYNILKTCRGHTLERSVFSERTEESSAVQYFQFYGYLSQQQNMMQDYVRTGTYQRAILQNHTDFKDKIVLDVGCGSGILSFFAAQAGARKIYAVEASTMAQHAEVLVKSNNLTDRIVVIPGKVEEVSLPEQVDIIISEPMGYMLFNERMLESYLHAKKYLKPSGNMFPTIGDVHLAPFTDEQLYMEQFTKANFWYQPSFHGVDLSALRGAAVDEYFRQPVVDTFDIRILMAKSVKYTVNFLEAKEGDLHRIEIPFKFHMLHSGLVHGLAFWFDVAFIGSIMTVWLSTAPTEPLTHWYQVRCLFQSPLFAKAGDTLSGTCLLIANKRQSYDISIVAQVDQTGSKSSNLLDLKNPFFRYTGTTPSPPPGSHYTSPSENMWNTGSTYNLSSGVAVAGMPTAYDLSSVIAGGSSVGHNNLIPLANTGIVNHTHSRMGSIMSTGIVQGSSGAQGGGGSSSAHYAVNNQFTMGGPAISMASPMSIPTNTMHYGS
Source text: as §1, §2, §3, §4

FLAG-tagged PRMT6 = molecular target: T4, FLAG-tagged PRMT6 (Homo sapiens, UniProt Q96LA8); assay: Fluorescence-based in vitro PRMT assay (F-PRMT assay), PRMT6; details: for Experimental result (PRMT6): vs solvent control = 100%; for Efficacy ±Δ% (PRMT6): mean % difference of activity vs solvent control (100%), - inhibition, + activation
T4 construct: The complete ORFs of human PRMT3 and PRMT6 were inserted; made in house; host or cells: Sf9 insect cells (baculovirus)
Procedure, shortened: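 Baculovirus/Sf9-expressed FLAG-PRMTs (human PRMT3, PRMT6; mouse PRMT4), anti-FLAG purified and used bead-bound, methylated Bz-Arg-AMC with SAM for 2 h at 37 °C, 1,000 rpm. Technical triplicates; no-SAM negative controls.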

[1] = Table 1, 100 μM compound, 2 μM PRMT, n = 3, racemates used
[2] = Table 1, 100 μM compound, n = 3
[3] = Table S3, 100 µM compound, mean % difference vs solvent control (100%), n≥3

T4 sequence (Q96LA8 whole entry): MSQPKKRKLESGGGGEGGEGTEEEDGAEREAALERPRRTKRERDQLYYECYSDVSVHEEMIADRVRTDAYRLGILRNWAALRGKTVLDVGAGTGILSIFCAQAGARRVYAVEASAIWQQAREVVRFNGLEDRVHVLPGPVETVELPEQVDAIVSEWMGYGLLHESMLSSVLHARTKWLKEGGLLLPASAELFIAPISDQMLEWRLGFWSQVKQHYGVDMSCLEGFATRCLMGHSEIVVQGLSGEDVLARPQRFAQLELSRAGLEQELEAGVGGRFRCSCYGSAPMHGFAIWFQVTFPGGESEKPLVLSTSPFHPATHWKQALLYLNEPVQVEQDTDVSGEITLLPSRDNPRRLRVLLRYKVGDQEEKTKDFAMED
T2 sequence (O60678 whole entry): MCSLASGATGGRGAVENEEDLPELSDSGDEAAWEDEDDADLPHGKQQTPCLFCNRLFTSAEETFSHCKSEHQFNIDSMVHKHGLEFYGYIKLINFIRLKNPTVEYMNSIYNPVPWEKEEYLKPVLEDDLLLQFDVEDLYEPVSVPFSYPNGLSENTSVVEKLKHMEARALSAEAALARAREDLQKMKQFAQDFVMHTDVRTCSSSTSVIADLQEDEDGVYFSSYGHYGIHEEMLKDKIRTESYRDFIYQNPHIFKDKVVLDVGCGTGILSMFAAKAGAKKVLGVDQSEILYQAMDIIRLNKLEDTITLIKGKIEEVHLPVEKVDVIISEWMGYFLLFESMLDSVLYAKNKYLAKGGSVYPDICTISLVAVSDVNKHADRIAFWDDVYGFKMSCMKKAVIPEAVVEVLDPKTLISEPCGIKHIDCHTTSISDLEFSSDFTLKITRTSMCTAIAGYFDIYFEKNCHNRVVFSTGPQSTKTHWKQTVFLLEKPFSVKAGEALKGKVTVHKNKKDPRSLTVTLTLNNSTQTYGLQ
T1 sequence (Q63009 whole entry): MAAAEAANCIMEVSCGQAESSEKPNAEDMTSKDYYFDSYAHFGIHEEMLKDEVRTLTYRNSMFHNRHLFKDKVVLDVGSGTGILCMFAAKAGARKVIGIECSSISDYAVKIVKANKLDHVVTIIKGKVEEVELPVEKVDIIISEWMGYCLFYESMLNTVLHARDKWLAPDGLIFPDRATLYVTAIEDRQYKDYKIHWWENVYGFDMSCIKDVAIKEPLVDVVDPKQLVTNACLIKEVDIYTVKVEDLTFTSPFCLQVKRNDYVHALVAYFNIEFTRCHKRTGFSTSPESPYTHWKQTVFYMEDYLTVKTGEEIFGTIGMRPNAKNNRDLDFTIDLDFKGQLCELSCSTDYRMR

Experimental result (PRMT6) (FLAG-tagged PRMT6; [1]) | Efficacy ±Δ% (PRMT6) (FLAG-tagged PRMT6; [2]) | effect on PRMT1 activity (in words) (FLAG-tagged PRMT1; 100 μM compound) | Structure (SMILES) | Experimental result (PRMT1) (FLAG-tagged PRMT1; [1]) | Experimental result (PRMT3) (FLAG-tagged PRMT3; [1]) | Experimental result (PRMT4) (FLAG-tagged PRMT4; [1]) | Experimental result (PRMT3) (FLAG-tagged PRMT3; Table S3, 100 µM compound, n≥3) | Experimental result (PRMT4) (FLAG-tagged PRMT4; Table S3, 100 µM compound, n≥3) | Experimental result (PRMT6) (FLAG-tagged PRMT6; Table S3, 100 µM compound, n≥3) | also measured
– | – | slight inhibitory effect | O=C1NC(=O)c2ccccc2/C1=C/NCc1ccccc1 [TR-03, (Z)-4-[(Benzylamino)methylene]isoquinoline-1,3(2H,4H)-dione] | – | – | – | n.e. (did not significantly affect the catalytic activity (less than ±6% change or not significant p-value), are marked with n.e. (no effect)) | n.e. (did not significantly affect the catalytic activity (less than ±6% change or not significant p-value), are marked with n.e. (no effect)) | n.e. (did not significantly affect the catalytic activity (less than ±6% change or not significant p-value), are marked with n.e. (no effect)) | –
– | – | no significant effect | O=C1NC(=O)c2ccccc2/C1=C/Nc1ccccc1 [TR-014, (Z)-4-[(Phenylamino)methylene]isoquinoline-1,3(2H,4H)-dione] | – | – | – | n.e. (did not significantly affect the catalytic activity (less than ±6% change or not significant p-value), are marked with n.e. (no effect)) | n.e. (did not significantly affect the catalytic activity (less than ±6% change or not significant p-value), are marked with n.e. (no effect)) | n.e. (did not significantly affect the catalytic activity (less than ±6% change or not significant p-value), are marked with n.e. (no effect)) | Experimental result (PRMT1) (FLAG-tagged PRMT1; Table S3, 100 µM compound, n≥3): n.e. (did not significantly affect the catalytic activity (less than ±6% change or not significant p-value), are marked with n.e. (no effect))

More lines, now with the values behind:

Structure (SMILES) | Experimental result (PRMT6) (FLAG-tagged PRMT6; [1]) | Efficacy ±Δ% (PRMT6) (FLAG-tagged PRMT6; [2]) | effect on PRMT1 activity (in words) (FLAG-tagged PRMT1; 100 μM compound) | Experimental result (PRMT1) (FLAG-tagged PRMT1; [1]) | Experimental result (PRMT3) (FLAG-tagged PRMT3; [1]) | Experimental result (PRMT4) (FLAG-tagged PRMT4; [1]) | Experimental result (PRMT3) (FLAG-tagged PRMT3; Table S3, 100 µM compound, n≥3) | Experimental result (PRMT4) (FLAG-tagged PRMT4; Table S3, 100 µM compound, n≥3) | Experimental result (PRMT6) (FLAG-tagged PRMT6; Table S3, 100 µM compound, n≥3) | also measured
CNCc1cn(CC2CCN(c3ccc(C(C)=O)cn3)CC2)nn1 [Compound K002JS003] | PRMT6 i | – | – | PRMT1 n.e. (Compounds, which did not significantly affect the catalytic activity (less than ±6% change or not significant p-value), are marked with [drawing 8] (no effect)) | PRMT3 n.e. (Compounds, which did not significantly affect the catalytic activity (less than ±6% change or not significant p-value), are marked with [drawing 8] (no effect)) | PRMT4 n.e. (Compounds, which did not significantly affect the catalytic activity (less than ±6% change or not significant p-value), are marked with [drawing 8] (no effect)) | – | – | – | –
NCC(=O)Nc1ccc(NC(=O)c2ccco2)cc1 [Compound K002JS013] | PRMT6 i | -8% | – | PRMT1 n.e. (Compounds, which did not significantly affect the catalytic activity (less than ±6% change or not significant p-value), are marked with [drawing 8] (no effect)) | PRMT3 n.e. (Compounds, which did not significantly affect the catalytic activity (less than ±6% change or not significant p-value), are marked with [drawing 8] (no effect)) | PRMT4 i | – | – | – | Efficacy ±Δ% (PRMT4) (FLAG-tagged PRMT4; Table 1, 100 μM compound, mean % difference of activity vs solvent control (100%), - inhibition, + activation, n = 3): -50%
O=C(CC1COCCN1)N1CCC(N2CCc3ccccc3C2)CC1 (centres unmarked) [Compound K002JS014] | PRMT6 i | -8% | – | PRMT1 n.e. (Compounds, which did not significantly affect the catalytic activity (less than ±6% change or not significant p-value), are marked with [drawing 8] (no effect)) | PRMT3 n.e. (Compounds, which did not significantly affect the catalytic activity (less than ±6% change or not significant p-value), are marked with [drawing 8] (no effect)) | PRMT4 n.e. (Compounds, which did not significantly affect the catalytic activity (less than ±6% change or not significant p-value), are marked with [drawing 8] (no effect)) | – | – | – | –
CN(C)Cc1cccc(N/C=C2\C(=O)NC(=O)c3ccccc32)c1 [TR-010] | – | – | – | – | – | – | – | n.e. (did not significantly affect the catalytic activity (less than ±6% change or not significant p-value), are marked with n.e. (no effect)) | n.e. (did not significantly affect the catalytic activity (less than ±6% change or not significant p-value), are marked with n.e. (no effect)) | activation at 100 µM (FLAG-tagged PRMT1; 100 μM compound, increase over solvent-treated activity, read-out: enhancement (increase) of PRMT1 enzymatic activity): ≥ 60%; Efficacy ±∆% (PRMT1) (FLAG-tagged PRMT1; [3]): +75%; Efficacy ±∆% (PRMT3) (FLAG-tagged PRMT3; [3]): +45%
